# Legend:
# [1] = test system: promoter region of the gene encoding human apoAI; experiment: Activity to enhance the expression of human apoAI (apoAI promoter-luciferase reporter in HepG2 cells); type: cell-based; settings: HepG2 cells stably expressing human apoAI promoter-firefly luciferase reporter; 24 hours incubation; 0 to 10 μg/mL; control DMSO
# Description: The promoter region of the gene encoding human apoAI was isolated, and ligated upstream the structure gene of firefly luciferase to construct a reporter plasmid. The reporter plasmid and a marker plasmid conferring the neomycin resistance were co-infected to cell lines derived from human hepatoma, HepG2 cells, and the cell lines were incubated in a selection medium comprising DMEM medium containing 10% fetal calf serum supplemented with G418 (Final concentration: 0.7 mg/mL, Gibco) to give established strains that stably expressed the reporter molecule. The strains were seeded to a 96-well culture plates at a density of 50,000 cells per well, and incubated for 48 hours at 37° C. under an atmosphere of 5% carbon dioxide. Then, a solution of the compounds according to the invention in DMSO was added to the wells at final concentrations of 0 to 10 μg/mL. After further incubation for 24 hours, the cells were added with a luciferase assay reagent (Piccagene LT 7.5 registered trade mark, Toyo Ink, KK), and the luciferase activity was determined using a luminometer (MicroBeta™ TRILUX, 1 sec/well, Wallac). The concentration of the compounds, which intensified the luciferase activity twice compared to that of control (DMSO without any compound of the invention added) was set as the minimal effective dose (MED).
Compound,melting point [°C],MED (minimal effective dose): concentration which intensified the luciferase activity twice compared to that of control [1] [µg/mL]
"O=C(C=Cc1ccccc1)Nc1cnc2ccccc2n1 [Ia-9, 3-Phenyl-N-quinoxalin-2-yl-acrylamide]",177 to 178,–
"Cc1ccc(NC(=O)c2ccc(Cl)cc2)cc1 [Ib-17, 4-Chloro-N-(4-tolyl)benzamide]",–,0.30

# Reference: US8106051B2, “Utilities of amide compounds” (Shionogi & Co., Ltd., priority 2001, dated 2012)
